We go through 13 compounds from patent US8173808B2, “Substituted naphthalenyl-pyrimidine compounds” (ArQule, Inc., priority 2009, dated 2012).

By inhibition is commonly meant the share of the control response that was lost under treatment. Higher therefore signals a strong effect.

For one assay, the system named is MDA-MB-231. The assay can be described thus: MTS assay, MDA-MB-231. Type of assay: cell-based. Conditions: Homo sapiens, 72 hours, 1 Percent FBS. Here is the method: (§1) Cells were maintained at 37° C., 5% CO2 in DMEM media supplemented with 1% fetal bovine serum, penicillin/streptomycin and fungizone (Invitrogen). Cells were seeded into 96-well tissue culture plates at 3000 per well and cultured at 37° C. for 18 hours. Test compounds were dissolved and diluted to 300× in DMSO then diluted 1:40 in DMEM. Cells were incubated with test compounds for 72 hours followed by incubation with tetrazolium compound (3-(4,5-dimethylthiazol-2-yl)-5-(3-carboxymethoxyphenyl)-2-(4-sulfophenyl)-2H-tetrazolium, inner salt; MTS) and the electron coupling reagent, phenazine methosulfate (PMS) for 4 hours. […] The ability of compounds to inhibit cell growth in this assay is correlated with the reduction of dehydrogenase enzyme activity found in metabolically active cells. The measurement of the absorbance of the formazan was assessed using a Victor (Perkin Elmer) microplate reader at 492 nm. The calculated IC50 value is the concentration of the test compound that causes a 50% decrease in the absorbance.
On the technique in general: Tetrazolium assays rely on reduction of a dye to a coloured formazan, in cell work by metabolically active cells.

Another assay deals with DLD-1. The experiment in a line: MTS assay, DLD-1. Type of assay: cell-based. Conditions: Homo sapiens, 72 hours, 1 Percent FBS. Here is the method: as §1

`COc1ccc2cc(-c3ccnc(NCCN(C)C)n3)cc(N3CCOCC3)c2c1` [Compound 8, N′-[4-(6-methoxy-4-morpholin-4-yl-2-naphthyl)pyrimidin-2-yl]-N,N-dimethylethane-1,2-diamine] yielded an inhibition at 10 µM with MDA-MB-231 of 45%.

`COc1ccc2cc(-c3ccnc(NCc4cccc(C(F)(F)F)c4)n3)cc(N3CCOCC3)c2c1` [Compound 13, 4-(6-methoxy-4-morpholin-4-yl-2-naphthyl)-N-[3-(trifluoromethyl)benzyl]pyrimidin-2-amine] returned an inhibition at 10 µM in the assay on DLD-1 of 98%.

In the assay on DLD-1, `COc1ccc2cc(-c3ccnc(NCCc4ccccc4OC)n3)cc(N3CCOCC3)c2c1` [Compound 15, 4-(6-methoxy-4-morpholin-4-yl-2-naphthyl)-N-[2-(2-methoxyphenyl)ethyl]pyrimidin-2-amine] displayed an inhibition at 10 µM of 90%.

For `COc1ccc2cc(-c3ccnc(NCCc4cccc(OC)c4OC)n3)cc(N3CCOCC3)c2c1` [Compound 17, N-[2-(2,3-dimethoxyphenyl)ethyl]-4-(6-methoxy-4-morpholin-4-yl-2-naphthyl)pyrimidin-2-amine], the inhibition at 10 µM with DLD-1 amounted to 31%.

`COc1ccc2cc(-c3ccnc(NCCc4ccccn4)n3)cc(N3CCOCC3)c2c1` [Compound 19, 4-(6-methoxy-4-morpholin-4-yl-2-naphthyl)-N-(2-pyridin-2-ylethyl)pyrimidin-2-amine] yielded an inhibition at 10 µM with DLD-1 of 30%.

As for `COc1ccc2cc(-c3ccnc(NCc4ccccc4C)n3)cc(N3CCOCC3)c2c1` [Compound 20, 4-(6-methoxy-4-morpholin-4-yl-2-naphthyl)-N-(2-methylbenzyl)pyrimidin-2-amine], 10 µM produced 66% inhibition in the assay with DLD-1.

For `COc1cc(CCNc2nccc(-c3cc(N4CCOCC4)c4cc(OC)ccc4c3)n2)cc(OC)c1` [Compound 27, N-[2-(3,5-dimethoxyphenyl)ethyl]-4-(6-methoxy-4-morpholin-4-yl-2-naphthyl)pyrimidin-2-amine], the inhibition at 10 µM with DLD-1 worked out at 87%.

The compound `CNc1nccc(-c2cc(NC(=O)CN3CCN(Cc4ccc(Cl)cc4)CC3)c3cc(OC)ccc3c2)n1` [Compound 66, 2-[4-(4-chlorobenzyl)piperazin-1-yl]-N-{7-methoxy-3-[2-(methylamino)pyrimidin-4-yl]-1-naphthyl}acetamide] had an inhibition at 10 µM in the assay with DLD-1 of 69%.

Regarding `COc1ccc2cc(-c3ccnc(NCc4ccc(OC)c(OC)c4)n3)cc(NC(=O)OC(C)(C)C)c2c1` [Compound 87, tert-butyl (3-{2-[(3,4-dimethoxybenzyl)amino]pyrimidin-4-yl}-7-methoxy-1-naphthyl)carbamate], in the assay on DLD-1, 10 µM produced 45% inhibition.

Consider `COc1ccc2cc(-c3ccnc(NCc4ccccn4)n3)cc(NC(=O)OC(C)(C)C)c2c1` [Compound 102, tert-butyl (7-methoxy-3-{2-[(pyridin-2-ylmethyl)amino]pyrimidin-4-yl}-1-naphthyl)carbamate], for which the inhibition at 10 µM with DLD-1 was determined as 43%.

In the assay on DLD-1, `CNc1nccc(-c2cc(NC3CCN(c4cc(N)ncn4)CC3)c3cc(OC)ccc3c2)n1` [Compound 156, 4-(4-{[1-(6-aminopyrimidin-4-yl)piperidin-4-yl]amino}-6-methoxy-2-naphthyl)-N-methylpyrimidin-2-amine] yielded an inhibition at 10 µM of 34%.

In turn, `CNc1nccc(-c2cc(NC3CCN(c4ncnc5scc(C)c45)CC3)c3cc(OC)ccc3c2)n1` [Compound 160, 4-(6-methoxy-4-{[1-(5-methylthieno[2,3-d]pyrimidin-4-yl)piperidin-4-yl]amino}-2-naphthyl)-N-methylpyrimidin-2-amine] gave an inhibition at 10 µM with DLD-1 of 50%.

`CNc1nccc(-c2cc(NC3CCN(c4cc(Cl)nc(C)n4)CC3)c3cc(OC)ccc3c2)n1` [Compound 162, 4-(4-{[1-(6-chloro-2-methylpyrimidin-4-yl)piperidin-4-yl]amino}-6-methoxy-2-naphthyl)-N-methylpyrimidin-2-amine] gave an inhibition at 10 µM with DLD-1 of 42%.
